Measured values reported in patent US20080146556A1, “Method of radio-sensitizing tumors using a radio-sensitizing agent” (Cephalon, Inc., priority 2006, published 2008).
Read-outs that look alike come from different tables or passages of the source. One block for each molecule: values may come before it.

What was measured:
[1] = target: recombinant human PARP (Homo sapiens, UniProt P09874); assay: Measurement of PARP enzymatic activity ([32P]NAD+ transfer to protein acceptor); format: biochemical; details: 100 μM NAD+
Procedure: PARP activity was monitored by transfer of radiolabeled ADP-ribose units from [^32P]NAD^+ to a protein acceptor such as histone or PARP itself. The assay mixtures contained 100 mM Tris (pH 8.0), 2 mM DTT, 10 mM MgCl2, 20 ug/ml DNA (nicked by sonication), […] histone H1, 5 ng recombinant human PARP, and inhibitor or DMSO (<2.5% (v/v)) in a final volume of 100 uL. The reactions were initiated by the addition of 100 μM NAD^+ supplemented with 2 uCi [^32P]NAD^+/mL and maintained at room temperature for 12 minutes. Assays were terminated by the addition of […] and the radiolabeled precipitate was collected on a 96-well filter plate (Millipore, MADP NOB 50), washed with 25% TCA. The amount of acid-insoluble radioactivity, corresponding to polyADP-ribosylated protein, was quantitated in a Wallac MicroBeta scintillation counter.
Single-point inhibition data were calculated by comparing PARP, VEGFR2, or MLK3 activity in the presence of inhibitor to activity in the presence of DMSO only. Inhibition curves for compounds were generated by plotting percent inhibition versus log10 of the concentration of compound. IC50 values were calculated by nonlinear regression using the sigmoidal dose-response (variable slope) equation in GraphPad Prism as follows:
y=bottom+(top−bottom)/(1+10^(log IC^50^−x)*Hillslope)
where y is the % activity at a given concentration of compound, x is the logarithm of the concentration of compound, bottom is the % inhibition at the lowest compound concentration tested, and top is the % inhibition at the highest compound concentration examined. The values for bottom and top were fixed at 0 and 100, respectively. IC50 values are reported as the average of at least three separate determinations.
Where no IC50 value is represented, data has yet to be determined.

[2] = Plasma levels of Example 6 at Cmax after s.c. dosing of Example 7 in the radio-sensitization studies; format: in vivo, nude mice; details: athymic NCR NUM nude, mouse, sc
[3] = test system: U87MG human glioblastoma xenografts; assay: Preliminary radio-sensitizing study of orally administered Example 7; format: in vivo, nude mice
[4] = test system: bone marrow and intestinal mucosa; assay: Bone marrow and jejunal crypt assays for radiation-induced normal tissue toxicity; format: in vivo; details: Example 7 30 and 100 mg/kg dose equivalents of Example 6 sc plus 2 Gy radiation x 5 days
Procedure: To evaluate therapeutic gain, Example 7 (30 and 100 mg/kg dose equivalents of Example 6 sc) plus 2 Gy radiation×5 days was evaluated in bone marrow and jejunal crypt assays to determine if Example 7 potentiated radiation-induced normal tissue (NT) toxicity.

[5] = test system: U87MG human glioblastoma xenografts; format: in vivo
[6] = test system: U87MG human glioblastoma xenografts; assay: Initial radio-sensitizing study, non-optimized dosing schedule (7.5 Gy x 3 days, s.c.); format: in vivo, nude mice
[7] = Example 7 30 mg/kg s.c. qd x 21 d plus RT 2 Gy x 5 days

recombinant human PARP, sequence (P09874 whole entry): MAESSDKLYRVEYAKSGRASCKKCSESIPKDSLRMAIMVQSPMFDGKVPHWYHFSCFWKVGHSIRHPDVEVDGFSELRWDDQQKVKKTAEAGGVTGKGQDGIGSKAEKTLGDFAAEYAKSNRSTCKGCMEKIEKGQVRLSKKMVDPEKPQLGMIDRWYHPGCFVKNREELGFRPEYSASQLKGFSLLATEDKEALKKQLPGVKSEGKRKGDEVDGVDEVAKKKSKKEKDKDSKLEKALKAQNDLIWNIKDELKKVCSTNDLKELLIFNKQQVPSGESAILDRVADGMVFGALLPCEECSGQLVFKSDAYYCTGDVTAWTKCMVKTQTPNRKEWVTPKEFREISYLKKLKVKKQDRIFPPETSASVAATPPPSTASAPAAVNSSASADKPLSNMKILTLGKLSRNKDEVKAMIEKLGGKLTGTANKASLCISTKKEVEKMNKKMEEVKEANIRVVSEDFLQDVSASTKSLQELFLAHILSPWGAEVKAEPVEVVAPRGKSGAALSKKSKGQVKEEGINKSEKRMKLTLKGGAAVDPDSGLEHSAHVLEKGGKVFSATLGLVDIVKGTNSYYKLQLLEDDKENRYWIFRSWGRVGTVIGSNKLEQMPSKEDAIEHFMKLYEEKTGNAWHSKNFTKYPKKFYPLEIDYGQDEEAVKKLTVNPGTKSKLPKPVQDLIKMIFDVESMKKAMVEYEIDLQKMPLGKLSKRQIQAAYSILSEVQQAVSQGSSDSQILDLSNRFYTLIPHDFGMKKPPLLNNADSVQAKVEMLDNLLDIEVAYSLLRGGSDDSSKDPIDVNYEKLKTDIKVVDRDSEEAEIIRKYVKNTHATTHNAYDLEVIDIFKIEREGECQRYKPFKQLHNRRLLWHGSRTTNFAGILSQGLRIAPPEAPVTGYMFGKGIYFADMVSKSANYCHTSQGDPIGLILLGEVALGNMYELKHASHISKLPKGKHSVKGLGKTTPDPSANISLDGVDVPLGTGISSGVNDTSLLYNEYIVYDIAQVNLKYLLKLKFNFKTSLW

IC50 [1]: < 100 nM
Structure (SMILES): COc1cccc2[nH]c3c4c(c5c(c3c12)C(=O)N(CN1CCOCC1)C5=O)CCC4 [Example 10, 7-Methoxy-5-(morpholin-4-ylmethyl)-1,2,3,11-tetrahydro-5,11-diaza-benzo[a]trindene-4,6-dione]

IC50 [1]: < 100 nM
Structure (SMILES): COc1cccc2c1c1c3c(c4c(c1n2CN1CCOCC1)CCC4)C(=O)N(CN1CCOCC1)C3=O [Example 9, 7-Methoxy-5,11-(bis-morpholin-4-ylmethyl)-1,2,3,11-tetrahydro-5,11-diaza-benzo[a]trindene-4,6-dione]

IC50 [1]: < 100 nM
Structure (SMILES): COc1cccc2[nH]c3c4c(c5c(c3c12)C(=O)NC5=O)CCC4 [Example 6, 7-Methoxy-1,2,3,11-tetrahydro-5,11-diaza-benzo[a]trindene-4,6-dione]
Cmax ([2]; 30 mg/kg, Example 7 30 mg/kg s.c., fractionated RT study, read-out: Plasma levels of Example 6 at Cmax associated with radio-sensitization efficacy): 5.5 µM
Cmax ([2]; 100 mg/kg, Example 7 100 mg/kg s.c. dose, fractionated RT study, read-out: Plasma levels at Cmax): 21 µM
Cmax ([2]; 100 mg/kg, at 100 mg/kg Example 7 s.c., initial study (7.5 Gy schedule), read-out: Plasma levels of Example 6 at Cmax associated with efficacy): 23 µM

Structure (SMILES): COc1cccc2[nH]c3c4c(c5c(c3c12)C(=O)N(CN1CCN(C)CC1)C5=O)CCC4 [Example 7, 7-Methoxy-5-(4-methyl-piperazin-1-ylmethyl)-1,2,3,11-tetrahydro-5,11-diaza-benzo[a]trindene-4,6-dione]
effect on tumor growth ([3]; Example 7 200 mg/kg dose equivalents of Example 6 p.o. qd x 21 d plus RT 2 Gy x 5 d): no effect on tumor growth as compared to RT alone
effect on tumor growth ([3]; Example 7 300 mg/kg dose equivalents of Example 6 p.o. qd x 21 d plus RT 2 Gy x 5 d): tumor growth stasis starting on day 8 and continuing throughout the study (day 31)
effect on tumor growth ([3]; Example 7 alone, 200 and 300 mg/kg dose equivalents of Example 6 p.o. qd x 21 d): no effect on tumor growth as compared to RT alone
radio-sensitizing effect when administered orally ([3]; oral administration): exerts radio-sensitizing effects when administered orally
potentiation of radiation-induced normal tissue toxicity [4]: did not potentiate radiation toxicity
TGD compared to radiation alone ([5]; Example 7 30 mg/kg s.c. qd x 21 d in combination with RT 2 Gy x 5 days): 15 days
TGD compared to Example 7 alone [5, 7]: 26 days
fold increase in TGD compared to Example 7 alone [5, 7]: 6 fold
fold increase in TGD compared to radiation alone [5, 7]: 4 fold
anti-tumor efficacy ([5]; Example 7 100 mg/kg s.c. with fractionated radiotherapy 2 Gy x 5 days): significant anti-tumor efficacy
mortality ([5]; Example 7 100 mg/kg s.c. with fractionated radiotherapy, by day 11): 80%
effect on tumor growth inhibition, Example 7 alone ([5]; Example 7 alone, 30 mg/kg dose equivalents of Example 6 s.c. qd x 21 days): no effect on tumor growth inhibition
tumor growth delay (TGD) ([6]; Example 7 (100 mg/kg s.c. qd) with 7.5 Gy radiation for 3 days, vs vehicle): 14.8 days
time for tumors to reach 2000 mm3 ([6]; Example 7 (100 mg/kg s.c. qd) with 7.5 Gy radiation for 3 days, radiation alone 16.1 days): 24.8 days
effect on tumor growth as a single agent ([6]; Example 7 alone, 100 mg/kg dose equivalents of Example 6, s.c., QD for 5 days): no effect on tumor growth
time for tumors to reach a tumor volume of 2000 mm3 ([6]; Example 7 only, 100 mg/kg dose equivalents of Example 6, s.c., QD 5 days, vehicle 10.0 days): 9.6 days
IC50 [1]: < 100 nM
